How the values were obtained:
Assay in all cases: relative viability (nuclei count vs DMSO), 5 days (fraction); higher = more cells survive
Vorinostat + Decitabine = compound: O=C(CCCCCCC(=O)Nc1ccccc1)NO [Vorinostat] + Nc1ncn([C@H]2C[C@H](O)[C@@H](CO)O2)c(=O)n1 [Decitabine] (partner 2 µM)
Procedure, shortened: (§1)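 Relative viability divides the nuclei count in treated wells by that in vehicle wells. Lung cancer cell lines were seeded in 1536-well plates, dosed by pin tool the next day, and fixed and stained after 5 days in one step with final 0.05% Triton X-100, 1% formaldehyde and 1 ug/ml Hoechst. Dosing was a single drug or a fixed anchor-drug dose plus five library-drug doses (not always all listed) in √10 steps, and values are medians of duplicate plates imaged at 4×.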

Vorinostat + Pictilisib = compound: O=C(CCCCCCC(=O)Nc1ccccc1)NO [Vorinostat] + CS(=O)(=O)N1CCN(Cc2cc3nc(-c4cccc5[nH]ncc45)nc(N4CCOCC4)c3s2)CC1 [Pictilisib] (partner 1 µM)
Procedure, shortened: as §1

Vorinostat + Palbociclib = compound: O=C(CCCCCCC(=O)Nc1ccccc1)NO [Vorinostat] + CC(=O)c1c(C)c2cnc(Nc3ccc(N4CCNCC4)cn3)nc2n(C2CCCC2)c1=O [Palbociclib] (partner 0.5 µM)
Procedure, shortened: as §1

Vorinostat + Bortezomib = compound: O=C(CCCCCCC(=O)Nc1ccccc1)NO [Vorinostat] + CC(C)C[C@H](NC(=O)[C@H](Cc1ccccc1)NC(=O)c1cnccn1)B(O)O [Bortezomib] (partner 0.002 µM)
Procedure, shortened: as §1

Vorinostat + Pemetrexed = compound: O=C(CCCCCCC(=O)Nc1ccccc1)NO [Vorinostat] + Nc1nc2[nH]cc(CCc3ccc(C(=O)N[C@@H](CCC(=O)O)C(=O)O)cc3)c2c(=O)[nH]1 [Pemetrexed] (partner 0.2 µM)
Procedure, shortened: as §1

| Cell Line | relative viability (Vorinostat + Decitabine; first compound 0.253 µM) | relative viability (Vorinostat + Decitabine; first compound 0.8 µM) | relative viability (Vorinostat + Decitabine; first compound 2.53 µM) | relative viability (Vorinostat + Decitabine; first compound 8 µM) | relative viability (Vorinostat + Pictilisib; first compound 0.253 µM) | relative viability (Vorinostat + Pictilisib; first compound 0.8 µM) | relative viability (Vorinostat + Pictilisib; first compound 2.53 µM) | relative viability (Vorinostat + Pictilisib; first compound 8 µM) | relative viability (Vorinostat + Palbociclib; first compound 0.253 µM) | relative viability (Vorinostat + Palbociclib; first compound 0.8 µM) | relative viability (Vorinostat + Palbociclib; first compound 2.53 µM) | relative viability (Vorinostat + Palbociclib; first compound 8 µM) | relative viability (Vorinostat + Bortezomib; first compound 0.253 µM) | relative viability (Vorinostat + Bortezomib; first compound 0.8 µM) | relative viability (Vorinostat + Bortezomib; first compound 2.53 µM) | relative viability (Vorinostat + Bortezomib; first compound 8 µM) | relative viability (Vorinostat + Pemetrexed; first compound 0.253 µM) | relative viability (Vorinostat + Pemetrexed; first compound 0.8 µM) | relative viability (Vorinostat + Pemetrexed; first compound 2.53 µM) | relative viability (Vorinostat + Pemetrexed; first compound 8 µM) |
| --- | --- | --- | --- | --- | --- | --- | --- | --- | --- | --- | --- | --- | --- | --- | --- | --- | --- | --- | --- | --- |
| NCI-H2085 | 0.569 | 0.554 | 0.379 | 0.281 | 0.53 | 0.462 | 0.378 | 0.303 | 0.464 | 0.419 | 0.302 | 0.172 | 0.942 | 0.841 | 0.566 | 0.265 | 1.02 | 0.738 | 0.45 | 0.18 |
| HOP-62 | 0.17 | 0.209 | 0.169 | 0.0871 | 0.966 | 0.205 | 0.203 | 0.079 | 0.492 | 0.409 | 0.177 | 0.0765 | 1.25 | 0.434 | 0.328 | 0.0711 | 0.393 | 0.28 | 0.212 | 0.0997 |
| SK-MES-1 | 0.362 | 0.364 | 0.212 | 0.163 | 0.469 | 0.349 | 0.231 | 0.0945 | 0.377 | 0.453 | 0.418 | 0.222 | – | – | – | – | 1.08 | 1.07 | 0.553 | 0.207 |
| NCI-H2170 | 0.415 | 0.407 | 0.321 | 0.129 | 0.348 | 0.235 | 0.209 | 0.185 | 0.407 | 0.345 | 0.253 | 0.102 | – | – | – | – | 0.249 | 0.242 | 0.222 | 0.114 |
| HCC-78 | 0.672 | 0.634 | 0.355 | 0.236 | 0.25 | 0.128 | 0.117 | 0.134 | 0.467 | 0.518 | 0.438 | 0.344 | 0.495 | 0.265 | 0.119 | 0.126 | 0.888 | 0.852 | 0.875 | 0.868 |
| NCI-H1703 | – | – | – | – | 0.31 | 0.233 | 0.363 | 0.2 | – | – | – | – | 0.262 | 0.23 | 0.156 | 0.133 | – | – | – | – |
| LCLC-97TM1 | 0.236 | 0.264 | 0.129 | 0.0801 | – | 0.151 | 0.168 | 0.0934 | 0.256 | 0.201 | 0.109 | 0.0671 | 0.724 | 0.413 | 0.121 | 0.0563 | 0.155 | 0.149 | 0.146 | 0.0924 |
| IA-LM | – | – | – | – | 0.309 | 0.25 | 0.114 | 0.0475 | – | – | – | – | 1.03 | 0.547 | 0.161 | 0.0471 | – | – | – | – |
| UMC-11 | 0.613 | 0.402 | 0.179 | 0.134 | 0.975 | 0.29 | 0.0923 | 0.0756 | 0.356 | 0.233 | 0.179 | 0.116 | 0.672 | 0.56 | 0.0652 | 0.0503 | 0.756 | 0.453 | 0.119 | 0.0862 |
| CAL-12T | – | – | – | – | 0.48 | 0.435 | 0.209 | 0.149 | 0.61 | 0.386 | 0.182 | 0.0984 | 1.22 | 0.984 | 0.406 | 0.148 | 1.36 | 1.31 | 1.08 | 0.126 |
| A-427 | 0.551 | 0.557 | 0.434 | 0.166 | 0.65 | 0.595 | 0.586 | 0.153 | 0.522 | 0.496 | 0.331 | 0.227 | 0.991 | 1.04 | 0.723 | 0.21 | 1.02 | 0.925 | 0.433 | 0.196 |
| NCI-H1755 | 0.703 | 0.773 | 0.44 | 0.213 | 0.47 | 0.368 | 0.173 | 0.138 | 0.431 | 0.463 | 0.3 | 0.209 | 0.95 | 0.934 | 0.2 | 0.174 | 0.458 | 0.382 | 0.285 | 0.177 |
| NCI-H522 | 0.632 | 0.657 | 0.531 | 0.259 | – | – | – | – | 1.2 | 0.879 | 0.616 | 0.252 | – | – | – | – | 1.22 | 1.05 | 1.01 | 0.262 |
| A549 | 0.224 | 0.302 | 0.256 | 0.0174 | 0.601 | 0.4 | 0.0772 | 0.0417 | – | – | – | – | – | – | – | – | – | – | – | – |
| LK-2 | 0.267 | 0.201 | 0.089 | 0.064 | 0.48 | 0.379 | 0.211 | 0.132 | 0.724 | 0.585 | 0.104 | 0.0605 | – | – | – | – | 0.278 | 0.262 | 0.138 | 0.036 |
| SW 900 | 0.34 | 0.351 | 0.23 | 0.159 | – | – | – | – | 0.513 | 0.526 | 0.219 | 0.136 | – | – | – | – | 0.502 | 0.483 | 0.308 | 0.147 |
| NCI-H2228 | – | – | – | – | 0.649 | 0.223 | 0.142 | 0.138 | 0.713 | 0.431 | 0.22 | 0.0631 | 0.979 | 0.389 | 0.188 | 0.097 | 0.336 | 0.297 | 0.252 | 0.132 |
| NCI-H1395 | 0.857 | 0.69 | 0.565 | 0.343 | 0.637 | 0.619 | 0.427 | 0.362 | 0.714 | 0.688 | 0.537 | 0.309 | – | – | – | – | 0.733 | 0.746 | 0.533 | 0.321 |
| NCI-H727 | 0.902 | 0.82 | 0.707 | 0.522 | 0.458 | 0.455 | 0.243 | 0.188 | 0.688 | 0.633 | 0.606 | 0.51 | 0.928 | 0.613 | 0.324 | 0.233 | – | – | – | – |
| ABC-1 | 1.33 | 0.896 | 0.421 | 0.158 | 0.981 | 0.509 | 0.168 | 0.118 | 0.696 | 0.563 | 0.344 | 0.137 | 0.297 | 0.281 | 0.175 | 0.194 | – | – | – | – |
